How the values were obtained:
fungus cellar soil-bed [1] = test: Fungus cellar soil-bed test of preservative plywood (JIS K1571:2004); details: for Grade average of the decay damage of five test samples: plywood, six months, 25° C., grade 0 sound condition to 5 out of shape due to the decay
Protocol: (§1) 1000 g of urea melamine resin (PWP-60, manufactured by Oshika Corporation) was added to 180 g of wheat flour and fully kneaded to thereby obtain a kneaded product. 8 g of ammonium chloride was added as a hardening agent to the kneaded product, and a solution of each of the compounds of Example 1 and Comparative Example 1, 2 and 5 to 25 was further added thereto so that the final concentrations of the compound in the wood become 150, 100, 50 and 25 g/m^3 and kneaded. 18 g of the above kneaded product was applied onto each of the bonding plane of the three red lauan veneer sheets having an area of 30 x 30 cm and thickness of 0.85 mm/2.4 mm/0.85 mm. After bonding the three sheets to each other, the sheets were subjected to cold pressing at room temperature for 20 minutes and the thermal pressure of 120° C. (10 kgf/cm^2) was applied to the sheets for two minutes to obtain the target plywood. Each of the prepared plywood was processed into the size of 20×20×4.1 mm to serve as a test sample.
The preservative plywood was prepared in the same manner in Preparation Example 2. Each of the prepared plywood was processed into the size of 8.9 x 8.9×100 mm to serve as a test sample.
(§2) The samples of the plywood and LVL prepared in Preparation Examples 4 and 5 were evaluated by the fungus cellar soil-bed test according to JIS K1571:2004. The weather resistance operation and the test method for the antiseptic effect were performed according to the above test method. The test was carried out for six months setting the test temperature to 25° C. (because the grade average of the decay damage of the non-treated test samples exceeded 2.5 in six months). […] The effect in the glue line treatment was actually investigated with respect to a number of existing antiseptics, and it was confirmed that only epoxyconazole is suitable for the glue line treatment at a low concentration.

fungus cellar soil-bed [2] = test: Fungus cellar soil-bed test of preservative LVL (JIS K1571:2004); details: 25° C., grade 0 sound condition to 5 out of shape due to the decay
Protocol: (§3) 1000 g of the phenol resin-based glue Deernol D-117 (manufactured by Oshika Corporation), 70 g of wheat flour and 100 g of calcium carbonate were mixed and well kneaded. A solution of each of the compounds of Example 1 and Comparative Example 1, 2 and 5 to 25 was added to the kneaded product so that the final concentrations of the compound in the wood become 150, 100, 50 and 25 g/m^3 and further kneaded. 18 g of the above kneaded product was applied onto each of the surface of glue line of the three Radiata pine veneer sheets having an area of 30 x 30 cm and thickness of 3 mm. After bonding the three sheets to each other, the sheets were subjected to cold pressing at room temperature for 20 minutes and the thermal pressure of 140° C. (10 kgf/cm^2) was applied to the sheets for two minutes to obtain the target LVL. Each of the prepared LVL was processed into the size of 20×20×9 mm to serve as a test sample.
The preservative LVL was prepared in the same manner in Preparation Example 3. Each of the prepared LVL was processed into the size of 9×9×100 mm to serve as a test sample.
as §2

[3] = Test for miscibility with a phenol resin glue; assay type: physicochemical; set-up: key to Phenol resin status after 60 minutes: ∘: No change; x: Obvious increase in the viscosity was seen and it seems impossible to apply the composition onto the veneer sheet; details: 10% (w/w) solution added to phenol resin glue Deernol D-117 kneaded product; viscosity change visually observed for 60 minutes
Protocol: The following compounds, which are known to have wood preservative activity, are dissolved in methyl ethylene triglycol to reach a concentration of 10% (w/w) to thereby obtain a solution of each of the compounds.
1000 g of phenol resin-based glue Deernol D-117 (manufactured by Oshika Corporation), 70 g of wheat flour and 100 g of calcium carbonate were mixed and well kneaded. Each of the solutions of Example 1 and Comparative Example 1 to 25 was added to 17 g of the kneaded product and mixed well together. The viscosity change of the glue was visually observed for 60 minutes. […] Although a number of documents listed as the prior art documents and the like teach that quaternary ammonium compounds can be applied to the glue line treatment, it is clear that those compounds have a problem for practical use (Comparative Examples 3 and 4). On the other hand, it was confirmed that the other compounds including that of Example has no problem from the viewpoint of compatibility.

Fomitopsis palustris [4] = test: Test for antiseptic effects of preservative LVL (JIS K1571:2004); assay type: cell-based; details: phenol resin
Protocol: as §3
(§4) The samples of the plywood and LVL prepared in Preparation Examples 2 and 3 were evaluated by the test for antiseptic effects for the drug pressure treatment according to JIS K1571:2004. The weather resistance operation and the test method for the antiseptic effect were performed according to the above test method.

Trametes versicolor [5] = test: as above; assay type: cell-based; details: phenol resin
Protocol: as §3, §4

Fomitopsis palustris [6] = test: Test for antiseptic effects of preservative plywood (JIS K1571:2004); assay type: cell-based; details: for average rate of decrease in weight: plywood, urea melamine resin, Fomitopsis palustris
Protocol: as §1, §4

Trametes versicolor [7] = test: as above; assay type: cell-based; details: plywood, urea melamine resin, Trametes versicolor
Protocol: as §1, §4

[8] = treated amount 25 g/m^3, six months
[9] = treated amount 50 g/m^3, six months
[10] = treated amount 100 g/m^3, six months
[11] = treated amount 150 g/m^3, six months

Row | SMILES | Grade average of the decay damage of five test samples (fungus cellar soil-bed [1]; treated amount 25 g/m^3) | Grade average of the decay damage of five test samples (fungus cellar soil-bed [1]; treated amount 50 g/m^3) | Grade average of the decay damage of five test samples (fungus cellar soil-bed [1]; treated amount 100 g/m^3) | Grade average of the decay damage of five test samples (fungus cellar soil-bed [1]; treated amount 150 g/m^3) | Grade average of the decay damage of five test samples (fungus cellar soil-bed [2]; [8]) | Grade average of the decay damage of five test samples (fungus cellar soil-bed [2]; [9]) | Grade average of the decay damage of five test samples (fungus cellar soil-bed [2]; [10]) | Grade average of the decay damage of five test samples (fungus cellar soil-bed [2]; [11]) | Phenol resin status after 60 minutes [3] | average rate of decrease in weight (Fomitopsis palustris [4]; treated amount 25 g/m^3) | average rate of decrease in weight (Fomitopsis palustris [4]; treated amount 50 g/m^3) | average rate of decrease in weight (Fomitopsis palustris [4]; treated amount 100 g/m^3) | average rate of decrease in weight (Fomitopsis palustris [4]; treated amount 150 g/m^3) | average rate of decrease in weight (Trametes versicolor [5]; treated amount 25 g/m^3) | average rate of decrease in weight (Trametes versicolor [5]; treated amount 50 g/m^3) | average rate of decrease in weight (Trametes versicolor [5]; treated amount 100 g/m^3) | average rate of decrease in weight (Trametes versicolor [5]; treated amount 150 g/m^3) | average rate of decrease in weight (Fomitopsis palustris [6]; treated amount 25 g/m^3) | average rate of decrease in weight (Fomitopsis palustris [6]; treated amount 50 g/m^3) | average rate of decrease in weight (Fomitopsis palustris [6]; treated amount 100 g/m^3) | further results
1 | Fc1ccc([C@]2(Cn3cncn3)O[C@H]2c2ccccc2Cl)cc1 (racemic) [Example 1, Epoxyconazole] | 0.2 | 0 | 0 | 0 | 0.4 | 0 | 0 | 0 | ∘ | ◯ (The average rate of decrease in weight was less than 3%.) | ◯ (The average rate of decrease in weight was less than 3%.) | ◯ (The average rate of decrease in weight was less than 3%.) | ◯ (The average rate of decrease in weight was less than 3%.) | ◯ (The average rate of decrease in weight was less than 3%.) | ◯ (The average rate of decrease in weight was less than 3%.) | ◯ (The average rate of decrease in weight was less than 3%.) | ◯ (The average rate of decrease in weight was less than 3%.) | ◯ (The average rate of decrease in weight was less than 3%.) | ◯ (The average rate of decrease in weight was less than 3%.) | ◯ (The average rate of decrease in weight was less than 3%.) | amount showing sufficient antiseptic effect (fungus cellar soil-bed [1]; fungus cellar soil-bed test, plywood and LVL, text summary of Tables 4 and 5): 25 to 50 g/m^3; amount showing sufficient antiseptic effect (Fomitopsis palustris [6]; glue line method, plywood and LVL, both fungi, summary of Tables 2 and 3): 25 to 50 g/m^3; average rate of decrease in weight (Fomitopsis palustris [6]; treated amount 150 g/m^3): ◯ (The average rate of decrease in weight was less than 3%.); average rate of decrease in weight (Trametes versicolor [7]; treated amount 25 g/m^3): ◯ (The average rate of decrease in weight was less than 3%.); average rate of decrease in weight (Trametes versicolor [7]; treated amount 50 g/m^3): ◯ (The average rate of decrease in weight was less than 3%.); average rate of decrease in weight (Trametes versicolor [7]; treated amount 100 g/m^3): ◯ (The average rate of decrease in weight was less than 3%.); average rate of decrease in weight (Trametes versicolor [7]; treated amount 150 g/m^3): ◯ (The average rate of decrease in weight was less than 3%.)
2 | CCCCNC(=O)OCC#CI [Comparative Example 23, 3-iode-2-propynyl-n-butylcarbamate] | 2.8 | 2.8 | 3.2 | 2.8 | 3.0 | 3.4 | 3.2 | 2.6 | ∘ | X (The average rate of decrease in weight was 3% or more.) | X (The average rate of decrease in weight was 3% or more.) | X (The average rate of decrease in weight was 3% or more.) | X (The average rate of decrease in weight was 3% or more.) | X (The average rate of decrease in weight was 3% or more.) | X (The average rate of decrease in weight was 3% or more.) | X (The average rate of decrease in weight was 3% or more.) | X (The average rate of decrease in weight was 3% or more.) | X (The average rate of decrease in weight was 3% or more.) | X (The average rate of decrease in weight was 3% or more.) | X (The average rate of decrease in weight was 3% or more.) | average rate of decrease in weight (Fomitopsis palustris [6]; treated amount 150 g/m^3): X (The average rate of decrease in weight was 3% or more.); average rate of decrease in weight (Trametes versicolor [7]; treated amount 25 g/m^3): X (The average rate of decrease in weight was 3% or more.); average rate of decrease in weight (Trametes versicolor [7]; treated amount 50 g/m^3): X (The average rate of decrease in weight was 3% or more.); average rate of decrease in weight (Trametes versicolor [7]; treated amount 100 g/m^3): X (The average rate of decrease in weight was 3% or more.); average rate of decrease in weight (Trametes versicolor [7]; treated amount 150 g/m^3): X (The average rate of decrease in weight was 3% or more.)
3 | CO/C=C(/C(=O)OC)c1ccccc1Oc1cc(Oc2ccccc2C#N)ncn1 [Comparative Example 21, azoxystrobin] | 3.0 | 3.0 | 3.0 | 2.8 | 3.0 | 3.6 | 3.4 | 2.8 | ∘ | X (The average rate of decrease in weight was 3% or more.) | X (The average rate of decrease in weight was 3% or more.) | X (The average rate of decrease in weight was 3% or more.) | X (The average rate of decrease in weight was 3% or more.) | X (The average rate of decrease in weight was 3% or more.) | X (The average rate of decrease in weight was 3% or more.) | X (The average rate of decrease in weight was 3% or more.) | X (The average rate of decrease in weight was 3% or more.) | X (The average rate of decrease in weight was 3% or more.) | X (The average rate of decrease in weight was 3% or more.) | X (The average rate of decrease in weight was 3% or more.) | average rate of decrease in weight (Fomitopsis palustris [6]; treated amount 150 g/m^3): X (The average rate of decrease in weight was 3% or more.); average rate of decrease in weight (Trametes versicolor [7]; treated amount 25 g/m^3): X (The average rate of decrease in weight was 3% or more.); average rate of decrease in weight (Trametes versicolor [7]; treated amount 50 g/m^3): X (The average rate of decrease in weight was 3% or more.); average rate of decrease in weight (Trametes versicolor [7]; treated amount 100 g/m^3): X (The average rate of decrease in weight was 3% or more.); average rate of decrease in weight (Trametes versicolor [7]; treated amount 150 g/m^3): X (The average rate of decrease in weight was 3% or more.)

From patent publication US20120100361A1, “ANTISEPTIC COMPOSITION FOR ENGINEERING WOOD PRODUCTION, AND ENGINEERING WOOD” (SDS BIOTECH K.K., priority 2009, published 2012)
